Drawing on ChEMBL document CHEMBL2074553, “Characterization of bile acid transport mediated by multidrug resistance associated protein 2 and bile salt export pump” (Biochim Biophys Acta, 2001), this text covers IC50 and Km for three molecules.

Data set [1] addresses T1, Bile salt export pump (Rattus norvegicus, UniProt O70127).
T1 sequence (O70127 whole entry): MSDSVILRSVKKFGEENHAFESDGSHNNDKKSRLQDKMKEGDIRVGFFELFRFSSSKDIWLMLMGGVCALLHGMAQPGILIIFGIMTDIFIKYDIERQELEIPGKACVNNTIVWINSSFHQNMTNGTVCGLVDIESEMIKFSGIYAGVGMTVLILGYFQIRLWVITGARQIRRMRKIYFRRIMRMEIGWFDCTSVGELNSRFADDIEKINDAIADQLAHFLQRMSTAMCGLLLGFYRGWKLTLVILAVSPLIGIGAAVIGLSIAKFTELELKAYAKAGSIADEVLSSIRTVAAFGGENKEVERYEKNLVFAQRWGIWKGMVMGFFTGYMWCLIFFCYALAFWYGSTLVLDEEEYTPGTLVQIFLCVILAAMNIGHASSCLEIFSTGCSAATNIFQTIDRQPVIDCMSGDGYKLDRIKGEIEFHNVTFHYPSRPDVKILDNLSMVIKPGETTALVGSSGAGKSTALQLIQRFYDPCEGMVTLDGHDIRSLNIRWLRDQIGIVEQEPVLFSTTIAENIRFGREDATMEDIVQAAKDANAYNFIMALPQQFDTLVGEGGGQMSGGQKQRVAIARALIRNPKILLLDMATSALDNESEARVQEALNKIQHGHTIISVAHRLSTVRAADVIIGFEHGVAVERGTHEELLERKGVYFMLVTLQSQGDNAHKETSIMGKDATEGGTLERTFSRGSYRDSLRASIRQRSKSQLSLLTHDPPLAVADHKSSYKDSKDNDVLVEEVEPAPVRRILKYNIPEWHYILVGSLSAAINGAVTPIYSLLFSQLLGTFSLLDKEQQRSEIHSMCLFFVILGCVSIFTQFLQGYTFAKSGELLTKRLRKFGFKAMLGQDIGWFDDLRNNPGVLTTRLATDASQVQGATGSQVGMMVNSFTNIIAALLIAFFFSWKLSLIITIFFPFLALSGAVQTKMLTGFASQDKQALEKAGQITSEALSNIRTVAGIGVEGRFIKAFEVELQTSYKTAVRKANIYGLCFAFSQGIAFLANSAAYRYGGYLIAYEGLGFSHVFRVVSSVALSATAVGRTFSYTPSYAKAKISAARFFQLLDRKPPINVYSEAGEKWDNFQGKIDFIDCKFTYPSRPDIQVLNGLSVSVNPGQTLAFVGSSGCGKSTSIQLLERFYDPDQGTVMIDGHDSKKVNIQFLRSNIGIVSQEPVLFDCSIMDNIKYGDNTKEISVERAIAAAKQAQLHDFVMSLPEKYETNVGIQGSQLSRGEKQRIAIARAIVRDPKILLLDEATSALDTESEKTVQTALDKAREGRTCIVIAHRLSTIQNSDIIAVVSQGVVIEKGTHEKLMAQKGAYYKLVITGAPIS
Nature of the data set: TP_TRANSPORTER: inhibition of Taurocholate uptake (Taurocholate: 1 uM) in canalicular membrane vesicles from SD rat. Type of data set: functional, cell membranes, Sprague-Dawley, Canalicular membrane vesicle.

Data set [2] has as its target T1, Bile salt export pump. The experiment in a line: TP_TRANSPORTER: inhibition of Taurocholate uptake (Taurocholate: 1 uM) in membrane vesicles isolated from Bsep-expressing Sf9 cells. Type of data set: functional, cell membranes, Membrane vesicle.
Substrate in data set [3]: [H][C@]12CC[C@]3([H])[C@]([H])(CC[C@]4(C)C([C@H](C)CCC(=O)NCCS(=O)(=O)O)CC[C@@]34[H])[C@@]1(C)CC[C@@H](OS(=O)(=O)O)C2
Nature of the data set: (§1) TP_TRANSPORTER: uptake in canalicular membrane vesicles from SD rat. Type of data set: functional, cell membranes, Srague-Dawley, Liver, Canalicular membrane vesicle.

Substrate in data set [4]: C[C@H](CCC(=O)NCCS(=O)(=O)O)C1CC[C@H]2[C@@H]3[C@H](O)C[C@@H]4C[C@H](OS(=O)(=O)O)CC[C@]4(C)[C@H]3CC[C@]12C
The description is as §1. Type of data set: functional, cell membranes, Srague-Dawley, Liver, Canalicular membrane vesicle.

Substrate in data set [5]: [H][C@]12CC[C@]3([H])[C@]([H])(CC[C@]4(C)C([C@H](C)CCC(=O)NCCS(=O)(=O)O)CC[C@@]34[H])[C@@]1(C)CC[C@@H](OS(=O)(=O)O)C2
Nature of the data set: TP_TRANSPORTER: uptake in membrane vesicles from Mrp2-expressing Sf9 cells. Type of data set: functional, cell membranes, Membrane vesicle.

Where a name gives a salt, the structure may show the parent alone.

For `C[C@H](CCC(=O)NCCS(=O)(=O)O)C1CC[C@H]2[C@@H]3CC[C@@H]4C[C@H](OS(=O)(=O)O)CC[C@]4(C)[C@H]3CC[C@]12C` (some centres not stated), the IC50 (usually the concentration needed to halve the response being measured) on Bile salt export pump [1] was determined as 1200 nM; at Bile salt export pump [2], 61.9 µM.

On to `C[C@H](CCC(=O)NCCS(=O)(=O)O)C1CC[C@H]2[C@@H]3[C@H](O)C[C@@H]4C[C@H](OS(=O)(=O)O)CC[C@]4(C)[C@H]3CC[C@]12C` (some centres not stated) [TAUROCHENODEOXYCHOLATE SULFATE], for which the IC50 at Bile salt export pump [1] was found to be 4600 nM; at Bile salt export pump [2], 67.9 µM.

B1: ATP-binding cassette sub-family C member 2 (Rattus norvegicus) (protein)
chain: MDKFCNSTFWDLSLLESPEADLPLCFEQTVLVWIPLGFLWLLAPWQLYSVYRSRTKRSSITKFYLAKQVFVVFLLILAAIDLSLALTEDTGQATVPPVRYTNPILYLCTWLLVLAVQHSRQWCVRKNSWFLSLFWILSVLCGVFQFQTLIRALLKDSKSNMAYSYLFFVSYGFQIVLLILTAFSGPSDSTQTPSVTASFLSSITFSWYDRTVLKGYKHPLTLEDVWDIDEGFKTRSVTSKFEAAMTKDLQKARQAFQRRLQKSQRKPEATLHGLNKKQSQSQDVLVLEEAKKKSEKTTKDYPKSWLIKSLFKTFHVVILKSFILKLIHDLLVFLNPQLLKLLIGFVKSSNSYVWFGYICAILMFAVTLIQSFCLQSYFQHCFVLGMCVRTTVMSSIYKKALTLSNLARKQYTIGETVNLMSVDSQKLMDATNYMQLVWSSVIQITLSIFFLWRELGPSILAGVGVMVLLIPVNGVLATKIRNIQVQNMKNKDKRLKIMNEILSGIKILKYFAWEPSFQEQVQGIRKKELKNLLRFGQLQSLLIFILQITPILVSVVTFSVYVLVDSANVLNAEKAFTSITLFNILRFPLSMLPMVTSSILQASVSVDRLERYLGGDDLDTSAIRRVSNFDKAVKFSEASFTWDPDLEATIQDVNLDIKPGQLVAVVGTVGSGKSSLVSAMLGEMENVHGHITIQGSTAYVPQQSWIQNGTIKDNILFGSEYNEKKYQQVLKACALLPDLEILPGGDMAEIGEKGINLSGGQKQRVSLARAAYQDADIYILDDPLSAVDAHVGKHIFNKVVGPNGLLAGKTRIFVTHGIHFLPQVDEIVVLGKGTILEKGSYRDLLDKKGVFARNWKTFMKHSGPEGEATVNNDSEAEDDDDGLIPTMEEIPEDAASLAMRRENSLRRTLSRSSRSSSRRGKSLKNSLKIKNVNVLKEKEKEVEGQKLIKKEFVETGKVKFSIYLKYLQAVGWWSILFIILFYGLNNVAFIGSNLWLSAWTSDSDNLNGTNNSSSHRDMRIGVFGALGLAQGICLLISTLWSIYACRNASKALHGQLLTNILRAPMRFFDTTPTGRIVNRFSGDISTVDDLLPQTLRSWMMCFFGIAGTLVMICMATPVFAIIIIPLSILYISVQVFYVATSRQLRRLDSVTKSPIYSHFSETVTGLPIIRAFEHQQRFLAWNEKQIDINQKCVFSWITSNRWLAIRLELVGNLVVFCSALLLVIYRKTLTGDVVGFVLSNALNITQTLNWLVRMTSEAETNIVAVERISEYINVENEAPWVTDKRPPADWPRHGEIQFNNYQVRYRPELDLVLKGITCNIKSGEKVGVVGRTGAGKSSLTNCLFRILESAGGQIIIDGIDVASIGLHDLRERLTIIPQDPILFSGSLRMNLDPFNKYSDEEVWRALELAHLRSFVSGLQLGLLSEVTEGGDNLSIGQRQLLCLGRAVLRKSKILVLDEATAAVDLETDSLIQTTIRKEFSQCTVITIAHRLHTIMDSDKIMVLDNGKIVEYGSPEELLSNRGSFYLMAKEAGIENVNHTEL
As for B1, the results for the Km in data set [3], in data set [4] and in data set [5] were 1.5 µM, 8.8 µM and 3.9 µM, respectively.
